{"source": "patent US8338383B1", "about": "“Use of immunomodulators for the treatment of cancer” (priority 2012, dated 2012)", "origin": "cited, not measured here", "tested_on": "patients with advanced pancreatic cancer", "conditions": "survival from study enrollment to death from any cause", "data": [{"smiles": "O=c1[nH]cc(F)c(=O)[nH]1", "note": "[5-FU, 5-fluorouracil]", "values": [{"measurement": "median Overall Survival", "value": 4.2, "unit": "months"}]}, {"smiles": "Nc1ccn([C@@H]2O[C@H](CO)[C@@H](O)C2(F)F)c(=O)n1", "note": "[gemcitabine, Gemcitabine]", "values": [{"measurement": "increased median survival versus 5-FU", "value": 1.5, "unit": "months"}, {"measurement": "median Overall Survival", "value": 5.7, "unit": "months"}]}]}
